Consider 16 compounds from ChEMBL document CHEMBL1201862, “PubChem BioAssay data set” (2004).

Test [1] is described as follows: Trypanosoma cruzi growth suppression in host cells – NIH3T3 host cells, beta-gal luminescence, confirmation (AID 2044).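 Also: intracellular parasites grown in NIH/3T3 mouse fibroblasts as host cells; luminescent beta-galactosidase reporter signal from transgenic T. cruzi replicating inside host cells; inhibitors lower the luminescence signal.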 In kind it is functional, cell-based.
A short description of test [2]: NIH3T3 cell viability loss – ATP luminescence, mouse fibroblasts, counter-screen, dose response (AID 2010).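 Also: cells exposed to compound for about 90 hours before reading.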 In kind it is functional, cell-based. In general terms: The purpose of a counterscreen is to sort out artefacts and off-target activity.
Test [3] can be described thus: cells.
Test [4] addresses T1, Neuropeptide Y receptor type 1 (Homo sapiens, UniProt P25929).
T1 sequence (P25929 whole entry): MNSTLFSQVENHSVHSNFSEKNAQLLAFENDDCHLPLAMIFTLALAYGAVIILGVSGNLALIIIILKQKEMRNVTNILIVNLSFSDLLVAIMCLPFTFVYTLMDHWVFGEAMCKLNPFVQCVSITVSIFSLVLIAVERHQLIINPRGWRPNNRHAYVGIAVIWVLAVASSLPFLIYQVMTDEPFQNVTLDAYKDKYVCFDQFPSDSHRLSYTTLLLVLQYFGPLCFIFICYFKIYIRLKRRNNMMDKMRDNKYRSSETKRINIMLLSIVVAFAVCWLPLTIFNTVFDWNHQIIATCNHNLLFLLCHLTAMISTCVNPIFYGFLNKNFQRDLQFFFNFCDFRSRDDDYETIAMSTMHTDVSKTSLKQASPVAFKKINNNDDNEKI
In kind it is functional.

Test [5] deals with T2, Neuropeptide Y receptor type 2 (Homo sapiens, UniProt P49146).
T2 sequence (P49146 whole entry): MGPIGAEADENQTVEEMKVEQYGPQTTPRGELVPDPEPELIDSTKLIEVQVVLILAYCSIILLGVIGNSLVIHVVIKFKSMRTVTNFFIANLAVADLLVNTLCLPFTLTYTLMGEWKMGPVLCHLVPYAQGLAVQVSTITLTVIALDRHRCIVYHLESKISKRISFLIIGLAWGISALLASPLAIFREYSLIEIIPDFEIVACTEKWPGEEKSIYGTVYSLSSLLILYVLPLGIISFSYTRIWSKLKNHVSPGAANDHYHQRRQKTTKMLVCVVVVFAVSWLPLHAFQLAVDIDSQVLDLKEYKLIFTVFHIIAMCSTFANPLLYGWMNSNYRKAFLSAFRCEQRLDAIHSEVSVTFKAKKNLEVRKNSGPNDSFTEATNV
In kind it is functional, cell-based.

The target of test [6] is T3, Mannose-6-phosphate isomerase (Homo sapiens, UniProt P34949).
T3 sequence (P34949 whole entry): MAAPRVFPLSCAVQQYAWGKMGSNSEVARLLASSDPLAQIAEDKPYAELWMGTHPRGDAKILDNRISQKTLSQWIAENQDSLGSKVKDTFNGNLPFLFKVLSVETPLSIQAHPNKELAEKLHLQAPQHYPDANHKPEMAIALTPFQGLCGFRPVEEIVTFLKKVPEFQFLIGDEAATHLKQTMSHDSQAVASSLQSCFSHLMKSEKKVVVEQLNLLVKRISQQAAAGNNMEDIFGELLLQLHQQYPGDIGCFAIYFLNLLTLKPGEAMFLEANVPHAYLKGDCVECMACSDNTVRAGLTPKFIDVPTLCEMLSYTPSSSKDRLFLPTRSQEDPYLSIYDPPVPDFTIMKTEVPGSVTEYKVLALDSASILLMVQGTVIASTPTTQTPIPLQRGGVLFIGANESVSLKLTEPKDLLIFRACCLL
Nature of the test: MPI inhibition at elevated mannose 6-phosphate – biochemical, fluorescence intensity, high mannose 6-phosphate, primary screen (AID 1220).

Test [7] has as its target T3, Mannose-6-phosphate isomerase. The test can be described thus: MPI enzyme activity inhibition – biochemical, fluorescence intensity, coupled assay, primary screen (AID 1209).
Test [8] deals with T4, Oxysterols receptor LXR-beta (Homo sapiens, UniProt P55055).
T4 sequence (P55055 whole entry): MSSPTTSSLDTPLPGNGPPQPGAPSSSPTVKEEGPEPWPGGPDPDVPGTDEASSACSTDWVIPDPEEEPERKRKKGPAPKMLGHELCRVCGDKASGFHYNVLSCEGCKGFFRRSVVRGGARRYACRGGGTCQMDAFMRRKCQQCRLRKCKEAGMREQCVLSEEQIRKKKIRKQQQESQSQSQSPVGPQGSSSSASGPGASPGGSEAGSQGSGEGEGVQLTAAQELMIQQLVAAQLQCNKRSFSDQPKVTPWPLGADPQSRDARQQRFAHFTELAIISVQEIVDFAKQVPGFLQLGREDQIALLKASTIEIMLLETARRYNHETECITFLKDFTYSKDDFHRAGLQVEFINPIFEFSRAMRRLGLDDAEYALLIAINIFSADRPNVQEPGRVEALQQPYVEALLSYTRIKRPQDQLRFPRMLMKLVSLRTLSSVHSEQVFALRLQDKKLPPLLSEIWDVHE
In kind it is functional, cell-based.

Test [9] is described as follows: cells. The source holds these as a separate data set.
The next test deals with T5, Protein skinhead-1 (Caenorhabditis elegans, UniProt P34707).
T5 sequence (P34707 whole entry): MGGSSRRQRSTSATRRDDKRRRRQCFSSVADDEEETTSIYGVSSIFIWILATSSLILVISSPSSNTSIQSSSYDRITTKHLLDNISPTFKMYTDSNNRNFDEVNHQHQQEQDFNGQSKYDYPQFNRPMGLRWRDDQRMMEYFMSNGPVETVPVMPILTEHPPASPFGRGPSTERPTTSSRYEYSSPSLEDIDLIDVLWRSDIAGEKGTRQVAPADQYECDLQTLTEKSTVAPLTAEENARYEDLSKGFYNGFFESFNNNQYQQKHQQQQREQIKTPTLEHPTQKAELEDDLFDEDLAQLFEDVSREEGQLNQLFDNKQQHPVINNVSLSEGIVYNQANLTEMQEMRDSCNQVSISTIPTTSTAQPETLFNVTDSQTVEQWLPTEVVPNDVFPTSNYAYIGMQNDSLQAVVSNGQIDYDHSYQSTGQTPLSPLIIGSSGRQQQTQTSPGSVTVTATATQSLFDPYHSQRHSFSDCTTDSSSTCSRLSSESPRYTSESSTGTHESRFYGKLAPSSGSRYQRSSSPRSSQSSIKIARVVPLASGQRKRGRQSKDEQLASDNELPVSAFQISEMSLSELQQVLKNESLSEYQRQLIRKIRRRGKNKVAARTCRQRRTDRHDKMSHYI
In kind it is functional.

The target in a further test is Cytochrome P450 2C19 (Homo sapiens, UniProt P33261). Nature of the test: qHTS Assay for Inhibitors and Substrates of Cytochrome P450 2C19. [Related pubchem assays: 410 ]. In kind it is ADME. Particulars: read-out: Potency.
Cytochrome P450 2C19, sequence (P33261 whole entry): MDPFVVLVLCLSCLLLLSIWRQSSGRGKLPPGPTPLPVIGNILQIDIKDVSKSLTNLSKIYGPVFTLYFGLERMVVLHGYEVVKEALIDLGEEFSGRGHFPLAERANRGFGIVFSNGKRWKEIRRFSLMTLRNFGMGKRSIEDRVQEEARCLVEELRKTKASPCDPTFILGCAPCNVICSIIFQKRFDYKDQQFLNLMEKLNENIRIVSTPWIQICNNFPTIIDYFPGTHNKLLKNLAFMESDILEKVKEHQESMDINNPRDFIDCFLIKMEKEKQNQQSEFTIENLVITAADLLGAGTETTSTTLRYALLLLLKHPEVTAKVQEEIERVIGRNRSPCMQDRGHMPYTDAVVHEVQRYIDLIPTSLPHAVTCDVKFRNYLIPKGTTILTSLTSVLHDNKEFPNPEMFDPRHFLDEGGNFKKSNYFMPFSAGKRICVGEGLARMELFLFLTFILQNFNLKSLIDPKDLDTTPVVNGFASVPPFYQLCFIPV
The target of test [10] is Voltage-dependent T-type calcium channel subunit alpha-1H (Homo sapiens, UniProt O95180). In kind it is functional.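 Also: channel activity triggered by adding a high calcium stimulation buffer.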
Voltage-dependent T-type calcium channel subunit alpha-1H, sequence (O95180 whole entry): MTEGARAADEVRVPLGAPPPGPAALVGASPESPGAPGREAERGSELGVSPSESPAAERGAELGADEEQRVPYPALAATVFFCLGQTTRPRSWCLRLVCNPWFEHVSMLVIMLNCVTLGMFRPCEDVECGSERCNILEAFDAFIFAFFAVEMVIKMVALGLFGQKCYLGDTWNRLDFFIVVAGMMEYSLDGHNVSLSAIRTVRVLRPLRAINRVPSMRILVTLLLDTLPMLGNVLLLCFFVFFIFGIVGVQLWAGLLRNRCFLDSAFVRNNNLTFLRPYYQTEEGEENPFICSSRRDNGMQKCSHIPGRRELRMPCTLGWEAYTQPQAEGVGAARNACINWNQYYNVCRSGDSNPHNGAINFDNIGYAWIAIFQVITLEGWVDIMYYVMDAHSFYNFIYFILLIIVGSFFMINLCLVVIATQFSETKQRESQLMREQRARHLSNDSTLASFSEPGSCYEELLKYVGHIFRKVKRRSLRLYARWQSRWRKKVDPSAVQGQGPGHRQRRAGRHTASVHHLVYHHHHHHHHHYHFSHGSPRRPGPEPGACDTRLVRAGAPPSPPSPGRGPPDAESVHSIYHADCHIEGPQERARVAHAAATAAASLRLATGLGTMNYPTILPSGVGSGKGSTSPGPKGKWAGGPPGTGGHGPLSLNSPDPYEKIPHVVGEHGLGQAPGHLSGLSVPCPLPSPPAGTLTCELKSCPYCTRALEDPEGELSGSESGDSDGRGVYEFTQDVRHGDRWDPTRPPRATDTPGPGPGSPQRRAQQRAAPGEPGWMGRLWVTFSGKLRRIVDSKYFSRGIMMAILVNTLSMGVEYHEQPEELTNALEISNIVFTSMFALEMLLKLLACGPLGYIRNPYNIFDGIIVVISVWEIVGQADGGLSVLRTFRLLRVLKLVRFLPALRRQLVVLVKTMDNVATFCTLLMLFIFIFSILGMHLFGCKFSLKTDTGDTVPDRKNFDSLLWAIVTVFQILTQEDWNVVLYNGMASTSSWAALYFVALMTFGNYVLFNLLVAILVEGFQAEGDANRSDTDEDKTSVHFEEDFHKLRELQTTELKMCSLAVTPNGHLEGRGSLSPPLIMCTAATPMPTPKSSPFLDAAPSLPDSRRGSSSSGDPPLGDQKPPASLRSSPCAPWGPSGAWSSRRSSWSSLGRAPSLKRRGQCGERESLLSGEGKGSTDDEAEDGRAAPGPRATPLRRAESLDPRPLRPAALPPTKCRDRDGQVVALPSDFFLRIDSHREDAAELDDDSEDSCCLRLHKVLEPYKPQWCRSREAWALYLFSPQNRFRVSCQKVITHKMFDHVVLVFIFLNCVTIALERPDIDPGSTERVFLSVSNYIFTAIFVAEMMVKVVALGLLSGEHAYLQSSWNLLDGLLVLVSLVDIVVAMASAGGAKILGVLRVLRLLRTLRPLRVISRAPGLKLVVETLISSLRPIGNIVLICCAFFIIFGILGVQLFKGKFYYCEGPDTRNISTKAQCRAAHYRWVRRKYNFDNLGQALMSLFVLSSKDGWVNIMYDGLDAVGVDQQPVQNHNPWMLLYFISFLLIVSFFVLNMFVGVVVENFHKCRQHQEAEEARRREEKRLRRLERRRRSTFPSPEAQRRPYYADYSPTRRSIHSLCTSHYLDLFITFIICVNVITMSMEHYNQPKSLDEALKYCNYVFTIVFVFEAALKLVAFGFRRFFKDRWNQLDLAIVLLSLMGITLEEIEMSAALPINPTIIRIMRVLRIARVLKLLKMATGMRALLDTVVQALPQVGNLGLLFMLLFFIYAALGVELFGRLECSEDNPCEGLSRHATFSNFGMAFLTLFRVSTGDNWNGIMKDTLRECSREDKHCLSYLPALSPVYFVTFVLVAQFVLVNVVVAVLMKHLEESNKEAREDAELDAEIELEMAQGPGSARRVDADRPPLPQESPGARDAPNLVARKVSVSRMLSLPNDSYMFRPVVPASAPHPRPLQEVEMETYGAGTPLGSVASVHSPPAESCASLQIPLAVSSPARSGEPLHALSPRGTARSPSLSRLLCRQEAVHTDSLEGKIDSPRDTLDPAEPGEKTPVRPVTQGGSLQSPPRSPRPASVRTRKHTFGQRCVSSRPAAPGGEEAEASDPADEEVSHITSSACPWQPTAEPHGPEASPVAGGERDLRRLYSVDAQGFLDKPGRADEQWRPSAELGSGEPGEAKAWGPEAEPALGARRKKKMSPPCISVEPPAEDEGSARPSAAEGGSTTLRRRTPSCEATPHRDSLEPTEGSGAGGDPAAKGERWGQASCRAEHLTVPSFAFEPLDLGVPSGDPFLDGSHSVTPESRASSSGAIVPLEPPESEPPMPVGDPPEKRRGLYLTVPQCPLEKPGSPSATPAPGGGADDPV
The target of test [11] is T6, Histone-lysine N-methyltransferase NSD2 (Homo sapiens, UniProt O96028).
T6 sequence (O96028 whole entry): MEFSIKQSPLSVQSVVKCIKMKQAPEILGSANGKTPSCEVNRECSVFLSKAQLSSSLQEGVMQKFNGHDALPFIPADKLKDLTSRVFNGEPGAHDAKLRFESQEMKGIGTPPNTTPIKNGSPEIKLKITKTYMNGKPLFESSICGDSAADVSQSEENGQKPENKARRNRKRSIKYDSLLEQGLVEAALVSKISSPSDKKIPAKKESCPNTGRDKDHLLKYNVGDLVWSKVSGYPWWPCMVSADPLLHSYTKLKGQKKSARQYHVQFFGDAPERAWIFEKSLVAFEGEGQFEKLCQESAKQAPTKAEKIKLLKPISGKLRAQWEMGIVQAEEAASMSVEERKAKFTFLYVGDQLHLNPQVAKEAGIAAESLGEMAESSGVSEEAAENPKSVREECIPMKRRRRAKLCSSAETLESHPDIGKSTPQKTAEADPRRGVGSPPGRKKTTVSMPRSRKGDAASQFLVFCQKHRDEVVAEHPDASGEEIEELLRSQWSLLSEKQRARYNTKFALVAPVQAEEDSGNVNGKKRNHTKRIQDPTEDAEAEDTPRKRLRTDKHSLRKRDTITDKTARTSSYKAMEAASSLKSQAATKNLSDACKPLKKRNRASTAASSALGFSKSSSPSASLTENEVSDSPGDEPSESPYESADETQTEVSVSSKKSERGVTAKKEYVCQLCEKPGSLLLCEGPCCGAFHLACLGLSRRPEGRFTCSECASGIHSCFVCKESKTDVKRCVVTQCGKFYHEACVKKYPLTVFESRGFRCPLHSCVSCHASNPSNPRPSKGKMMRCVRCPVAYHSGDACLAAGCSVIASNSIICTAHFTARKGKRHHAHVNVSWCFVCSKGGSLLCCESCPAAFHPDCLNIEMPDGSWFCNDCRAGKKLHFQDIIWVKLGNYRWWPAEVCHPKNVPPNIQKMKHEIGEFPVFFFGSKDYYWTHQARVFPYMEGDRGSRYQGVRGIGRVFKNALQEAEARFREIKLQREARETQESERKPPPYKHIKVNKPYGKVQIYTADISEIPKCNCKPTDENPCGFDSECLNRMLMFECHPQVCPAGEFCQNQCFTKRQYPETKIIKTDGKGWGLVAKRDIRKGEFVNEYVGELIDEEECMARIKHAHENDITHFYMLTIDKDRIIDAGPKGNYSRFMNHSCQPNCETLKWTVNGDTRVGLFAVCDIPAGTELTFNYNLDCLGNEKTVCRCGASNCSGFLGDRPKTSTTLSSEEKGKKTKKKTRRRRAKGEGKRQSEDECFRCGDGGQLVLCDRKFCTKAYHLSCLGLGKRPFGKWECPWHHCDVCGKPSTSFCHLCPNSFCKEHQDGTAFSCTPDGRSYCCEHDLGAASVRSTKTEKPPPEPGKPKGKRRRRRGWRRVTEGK
In kind it is biochemical.

The nature of test [12]: P. falciparum Dd2 growth inhibitors, dose response, SYBR Green, cherry-picked samples (AID 1159567). In kind it is functional, cell-based.
A short description of test [13]: toxicity to human hepatoma HepG2 cells – cell-based, cherry-picked samples, cytotoxicity control, dose response (AID 1159577). In kind it is functional.
The target of test [14] is T7, Polyadenylate-binding protein 1 (Homo sapiens, UniProt P11940). The test can be described thus: MLLE domain peptide-binding blockers, IC50 – biochemical, fluorescence polarization, FITC-PAM2 peptide, dose response (AID 602259). In kind it is functional. The conditions noted are these: read-out: IC50_Mean. A general note: Polarisation of emitted light reports the rotation of a fluorescent probe.
T7 sequence (P11940 whole entry, the tested form may be a part): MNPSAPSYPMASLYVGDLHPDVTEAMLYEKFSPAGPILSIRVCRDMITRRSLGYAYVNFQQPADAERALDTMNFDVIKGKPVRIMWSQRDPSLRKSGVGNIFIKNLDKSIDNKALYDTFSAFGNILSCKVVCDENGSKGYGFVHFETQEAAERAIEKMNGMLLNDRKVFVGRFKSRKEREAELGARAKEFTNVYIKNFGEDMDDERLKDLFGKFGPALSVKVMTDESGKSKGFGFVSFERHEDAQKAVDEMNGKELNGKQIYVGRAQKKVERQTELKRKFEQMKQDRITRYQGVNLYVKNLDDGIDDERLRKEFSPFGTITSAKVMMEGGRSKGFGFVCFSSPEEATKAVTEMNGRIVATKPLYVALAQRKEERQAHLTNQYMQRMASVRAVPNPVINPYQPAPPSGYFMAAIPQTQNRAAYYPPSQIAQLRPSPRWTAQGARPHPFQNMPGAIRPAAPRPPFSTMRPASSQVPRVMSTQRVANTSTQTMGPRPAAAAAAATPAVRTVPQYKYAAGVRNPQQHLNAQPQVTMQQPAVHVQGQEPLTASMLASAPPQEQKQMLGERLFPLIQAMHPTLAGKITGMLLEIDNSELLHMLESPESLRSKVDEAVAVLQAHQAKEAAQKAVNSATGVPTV

In test [15] the target is T7, Polyadenylate-binding protein 1. The test can be described thus: MLLE binding blockers, Cy5 peptide tracer – biochemical, fluorescence polarization, Cy5-PAM2 peptide, secondary, miRNA deadenylation inhibitor project, dose response (AID 602260). In kind it is functional. The conditions noted are these: read-out: IC50_Mean.
Test [16] is described as follows: IC50 of insulin release inhibition, rat insulinoma INS-1E line, 5 mM glucose, cell-based (AID 1117331). In kind it is functional.

Where a name gives a salt, the structure may show the parent alone. The source made the active and inactive calls. Bounds are passed on as bounds.

Broadly, the EC50 is the concentration that produces a half-maximal response. `O=C(NCCc1c[nH]c2ccccc12)c1cc([N+](=O)[O-])cc([N+](=O)[O-])c1`: the EC50 in test [1] is < 0.1 µM (active); in test [2] it was > 60 µM (not active); in “cells [3]” it was 0.264 µM (active).

On to `O=C(COC(=O)/C=C/c1ccc(Cl)cc1)Nc1ccccc1-c1ccccc1`, for which the IC50 in test [4] was 6.13 µM (active); in [5], 8.06 µM (active).

With `Cc1cc(C(=O)N(C)CC2CCCN(CCc3ccc(F)cc3)C2)c(C)o1` (configuration not stated), the figures for the EC50 (in test [1]; in test [2]; in “cells [3]”) were < 0.1 µM (active), > 60 µM (not active) and 0.279 µM (active), respectively.

On to `O=C(O)/C=C/C(=O)Nc1ccc2c(c1)NC(=O)CO2`, for which the IC50 in [6] and in test [7] was > 50 µM (not active) in each case.

As to `c1ccc(-c2csc(Nc3ccccn3)n2)cc1`, the EC50 (in test [8]; in “cells [9]”) was > 67.5 µM (inactive) in each case. At Protein skinhead-1, the IC50 is 18 µM (active).

Regarding `CCC(Oc1ccc2c(=O)c(-c3ccccc3OC)coc2c1)C(=O)OCc1ccccc1` (configuration not stated), the values for the IC50 in test [4] and in test [5] were 11.5 µM (not active) and 4.12 µM (active), respectively.

On to `CCOc1cc2c(C#N)c(N3CCOCC3)nc(N)c2c(N)n1`, for which the IC50 in test [6] and in [7] was > 50 µM (not active) each time.

Regarding `CCOC(=O)OCC1OC(CCc2ccccc2)CCC1Oc1ccc(OC)cc1` (configuration not stated), the AC50 at Cytochrome P450 2C19 was 2.51 µM (inconclusive).

Regarding `c1ccc(Nc2nc(-c3cccs3)cs2)nc1`, the figures for the EC50 (in test [8]; in test [10]; in the test “cells [9]”) were > 67.5 µM (inactive), 9.21 µM (active) and > 67.5 µM (inactive), respectively. Further, on Protein skinhead-1, the IC50 is 15.6 µM (active).

With `Cc1ccc2nc(N(CCCN(C)C)C(=O)c3ccco3)sc2c1`, the EC50 in test [1] is < 0.1 µM (active); in test [2] it was > 60 µM (not active); in the test “cells [3]”, 0.036 µM (active).

`C(=N/Nc1cc(N2CCOCC2)nc(N2CCOCC2)n1)/c1ccccc1`: the IC50 in test [6] and in [7] was > 50 µM (not active) in each case. Further, in test [11], the AC50 is > 20 µM (inactive).

For `COc1ccc(/C=C/C(=O)c2ccc(OC)cc2O)cc1`, the AC50 at Cytochrome P450 2C19 is 0.398 µM (inconclusive).

As for `S=C(NCCc1ccccc1)N/N=C/c1ccccc1Cl`, the IC50 in test [4] was 5.02 µM (active); in test [5], 5.07 µM (active).

For `COc1ccc(S(=O)(=O)N(C)C[C@H]2Oc3c(NC(=O)Nc4ccccc4)cccc3C(=O)N([C@@H](C)CO)C[C@H]2C)cc1`, the AC50 is 4.8 µM (active) in [12] and 33.8 µM (active) in test [13].

For the compound `COc1ccc2c3c([nH]c2c1)[C@@H](CO)N(C(=O)Nc1ccc(F)cc1)CC31CN(Cc2cc(F)ccc2F)C1`, the AC50 in test [13] is 18.8 µM (active).

In the case of `CC(=O)c1ccc2c(c1)N(CCCN(C)C)c1ccccc1S2` [ACEPROMAZINE MALEATE], the IC50 in test [14] is > 66 µM (inactive); in test [15], > 66 µM (inactive); in [16] it was 11.4 µM (inactive).
